Data from publication PMC5122374 (Oncotarget, 2016).

Tests used:
[1] = system: uPA activity in MDCK cells; assay: Urokinase-type plasminogen activator (uPA) assay; assay type: cell-based, canine; details: HGF 100 ng/mL, 24 h, dose-dependent
Protocol: MDCK cells (1.5-2 ×10^3 cells per well) were plated in 96-well plate and grown overnight. […] The plate was processed for determination of plasminogen activity by first rinsing wells twice with DMEM (without phenol red), then adding 200 μL of reaction buffer [10%(v/v) 3 mM chromozym PL (Roche) in 100 mM glycine, 40%(v/v) 50 mM Tris (pH 8.2), 50%(v/v) 0.05 unit/mL plasminogen (Roche) in DMEM (without phenol red), and 0.2% Tween-20] to each well. After incubation at 37°C, 5% CO2 for 6 h, the absorbance of each well was read at 405 nm.

MDCK cells [2] = assay: HGF-induced cell branching morphogenesis in collagen; assay type: cell-based, canine; details: 5 days
Protocol: MDCK cells at a density of 2×10^4 cells/mL in DMEM medium were mixed with an equal volume of collagen I solution and plated at 0.1 mL/well in a 96-well culture plate. […] The medium was replaced with fresh growth medium every 2 days. Images were obtained using an Olympus IX51 microscope after 5 days.

NCI-H1993 cells = assay: Cell proliferation assay (SRB or MTT); assay type: cell-based; details: Homo sapiens, NCI-H1993, 72 h; read-out: anti-proliferative IC50
Protocol: (§1) Cells were seeded in 96-well tissue culture plates. On the next day, cells were exposed to various concentrations of compounds and further cultured for 72 h. For Human umbilical vascular endothelial cells (HUVEC) (passage 3) were transferred to basal medium (without growth factor and serum) for 24 h before compounds treated for another 24 h. Finally, cell proliferation was determined using sulforhodamine B (SRB) assay, Thiazolyl Blue Tetrazolium Bromide (MTT; Sigma) assay or Cell Counting Kit (CCK-8) assay. IC50 values were calculated by concentration-response curve fitting using a SoftMax pro-based four-parameter method.

MKN-45 cells [3] = assay: Cell proliferation assay (SRB or MTT); assay type: cell-based; details: Homo sapiens, MKN-45, 72 h, read-out: anti-proliferative IC50
Protocol: as §1

SNU-5 cells = assay: Cell proliferation assay (SRB or MTT); assay type: cell-based; details: Homo sapiens, SNU-5, 72 h, read-out: anti-proliferative IC50
Protocol: as §1

EBC-1 cells [4] = assay: Cell proliferation assay (SRB or MTT); assay type: cell-based; details: Homo sapiens, EBC-1, 72 h; read-out: anti-proliferative IC50
Protocol: as §1

[5] = system: EBC-1 human NSCLC xenograft; assay: In vivo antitumor activity, EBC-1 xenograft
Protocol: . Animal procedures were performed according to institutional ethical guidelines of animal care. […]. After that, the well-developed tumors were cut into 1 mm^3 fragments and transplanted s.c. into the right flank of nude mice using a trocar. When the tumor volume reached 100-200 mm^3, the mice were randomly assigned into vehicle and treatment groups (n = 6 per group). […] The sizes of the tumors were measured twice per week using microcaliper. The tumor volume (TV) was calculated as: TV = (length×width^2)/2 and the individual relative tumor volume (RTV) was calculated as follows: RTV = Vt/V0, where Vt is the volume on each day, and V0 is the volume at the beginning of the treatment. RTV was shown on indicated days as the median RTV ± SE indicated for groups of mice.
Tumor specimens were fixed in 4% paraformaldehyde for 24 h. Tumor samples were subsequently paraffin-embedded, and sliced onto microscope slides. After dewaxing and blocking endogenous peroxidase activity with 3% H2O2, the sections were incubated with 1.5% normal goat serum, followed by overnight incubation at 4°C with anti-phospho-c-Met antibody (Y1234/1235), anti-CD31 antibody or anti-Ki67 antibody. Then, the sections were incubated with biotin-conjugated anti-rabbit IgG for 2 h at 37°C followed by incubating for 1 h with avidin-biotin-peroxidase complex (ABC) using a Vectastain ABC kit(Vector Laboratories). Staining was detected using the DAB (3, 3′-diaminobenzidine tetrahydrochloride) Liquid System (ZSGB-Bio) and imaged in 5 different fields of each section. Anti-phospho-c-Met and anti-CD31 antibody immunostained sections were counterstained using hematoxylin.

MKN-45 cells [6] = assay: Cell cycle analysis by flow cytometry; assay type: cell-based, human; details: MKN-45, 24 h
Protocol: (§2) After 24 h, cells were collected, fixed and stained with propidium iodide (10 μg/mL) for 30 min, then analyzed using a flow cytometer (FACS Caliber instrument; Becton, Dickinson & Co.). Data were plotted using CellQuest (Becton, Dickinson &Co).

EBC-1 cells [7] = assay: Cell cycle analysis by flow cytometry; assay type: cell-based, human; details: EBC-1, 24 h
Protocol: as §2

NCI-H441 cells [8] = assay: HGF-induced Matrigel invasion assay; assay type: cell-based, human; details: NCI-H441, HGF 100 ng/mL, 24 h
Protocol: (§3) For the migration assay, NCI-H441 cells suspended in serum-free medium (1.5×10^5 cells per well) were seeded in 24-well Transwell plates (pore size, 8 μm; Corning). […] The cultures were maintained for 24 h, followed by the removal of non-motile cells at the top of the filter using a cotton swab. The migrating cells were fixed in paraformaldehyde (4%) and stained with crystal violet (0.1%) for 15 min at room temperature. The dye that was taken up by the cells bound to the membrane was released by the addition of 100 μL 10% acetic acid, and the absorbance of the resulting solution was measured at 595 nm using a multiwell spectrophotometer (SpetraMAX 190, from Molecular Devices, Palo Alto, CA, USA). The assay was performed in triplicate. Images were obtained using an Olympus BX51 microscope.
For the invasion assay, NCI-H441 cells were cultured in the top chambers containing Matrigel-coated membrane inserts (Matrigel, BD). The ensuing procedure was identical to the migration assay. The assay was performed in triplicate. Images were obtained using an Olympus BX51 microscope.

[9] = system: SNU-5 human gastric carcinoma xenograft; assay: In vivo antitumor activity, SNU-5 xenograft; set-up: species or system nude mice
Protocol: Female nude mice (4-6 weeks) were housed five or six mice per cage in a specific pathogen-free room with a 12 h light/dark schedule at 25°C ± 1°C and were fed an autoclaved chow diet and water ad libitum. Animal procedures were performed according to institutional ethical guidelines of animal care. […] After that, the well-developed tumors were cut into 1 mm^3 fragments and transplanted s.c. into the right flank of nude mice using a trocar. […] The sizes of the tumors were measured twice per week using microcaliper. The tumor volume (TV) was calculated as: TV = (length×width^2)/2 and the individual relative tumor volume (RTV) was calculated as follows: RTV = Vt/V0, where Vt is the volume on each day, and V0 is the volume at the beginning of the treatment. RTV was shown on indicated days as the median RTV ± SE indicated for groups of mice. […] Tumor specimens were fixed in 4% paraformaldehyde for 24 h. Tumor samples were subsequently paraffin-embedded, and sliced onto microscope slides. […] Staining was detected using the DAB (3, 3'-diaminobenzidine tetrahydrochloride) Liquid System (ZSGB-Bio) and imaged in 5 different fields of each section. Anti-phospho-c-Met and anti-CD31 antibody immunostained sections were counterstained using hematoxylin. Serum levels of human IL-8 were detected by using Human IL-8 Quantikine ELISA Kit (R&D Systems, Inc.) follows the instructions.

NCI-H441 cells [10] = assay: HGF-induced Transwell migration assay; assay type: cell-based, human; details: NCI-H441, HGF 100 ng/mL, 24 h
Protocol: as §3

[11] = system: MMP-9 expression in NCI-H441 cells; assay: Gelatin zymography of HGF-induced MMP-9 expression; assay type: cell-based, human; details: NCI-H441, HGF 100 ng/mL, 24 h, dose-dependent
Protocol: NCI-H441 cells were seeded in a six-well plate (5×10^5 per well) and incubated at 37°C. […] The conditioned medium was collected and centrifuged at 12,000 g for 15 min and concentrated by Micro centrifugal filter device (Millipore Corporation). Then the supernatants were collected and separated on 7.5% SDS-PAGE with 2 mg/mL gelatin incorporated into the gel mixture. Following electrophoresis at 4°C, the gels were rinsed briefly with distilled water and washed three times (15 min each) with 150 ml of 2.5% Triton X-100 solution on a rotary shaker. The gels were then incubated at 37°C for 18 h in 250 ml of 50 mmol/L Tris·HCl (pH 7.5) that contained 10 mmol/L CaCl2, 1 μM ZnCl2, 1% Triton X-100, and 0.02% NaN3. After incubation, the gels were stained with 100 ml of 50% methanol, 10% acetic acid, and 0.1% Coomassie blue R-250 for 3 h, then destained with 50% methanol and 10% acetic acid. Finally, the gels were immersed in distilled water for 20 min and quantified by densitometric analysis using Image Lab software (Bio-Rad Laboratories, Inc.).

[12] = Cell proliferation assay, cell panel (SRB or MTT); assay type: cell-based; details: human, panel of cells with low c-Met expression or activation; read-out: cytotoxicity IC50 values
Protocol: as §1

[13] = system: c-Met phosphorylation and its downstream signaling; assay: Immunoblotting of c-Met signaling in HGF-stimulated HUVEC cells; assay type: cell-based, human; details: Simm530 2 h then 100 ng/mL HGF 15 min
Protocol: Cells were cultured under regular growth conditions to exponential growth phase. […] Those cell lysates were subsequently resolved on 10% SDS-PAGE, and transferred to nitrocellulose membranes. Proteins were probed with specific antibody then subsequently with secondary horseradish peroxidase-conjugated antibody. Finally, immunoreactive proteins were detected using an enhanced chemiluminescence detection reagent (Pierce, Thermo Fisher Scientific Inc.).

MDCK cells [14] = assay: HGF-induced scattering assay; assay type: cell-based, canine; details: 18 to 24 h
Protocol: MDCK cells (1.5×10^3 cells per well) were plated in 96-well plates and grown overnight. […] The cells were fixed with 4% paraformaldehyde for 15 min at room temperature and then stained with 0.2% crystal violet. The assay was performed in triplicate. Images were obtained using an Olympus IX51 microscope.

For `Cn1cc(-c2cnc3nnc(C(F)(F)c4ccc5ncccc5c4)n3n2)cn1` [Simm530], the “effect on HGF-induced urokinase activity” value [1] was “significantly inhibited”, the “effect on HGF-induced branching morphogenesis” value (MDCK cells [2]) was “strongly inhibited” and the IC50 (NCI-H1993 cells) was 0.8 nM. The IC50 (MKN-45 cells [3]) was 0.7 ± 0.1 nM, the IC50 (SNU-5 cells) was 0.9 ± 0.2 nM and the IC50 (EBC-1 cells [4]) was 0.7 nM. For the same compound, the tumor response ([5]; 12.5 mg/kg oral twice daily) was “Tumor stasis”, the “mice showing no signs of tumor” value ([5]; 100 mg/kg twice daily) was 4 of the 6 and the tumor response ([5]; 50 and 100 mg/kg oral twice daily) was “tumor regression”. The “intratumoral phosphorylation of c-Met” value ([5]; 2 hours after the final dosage, immunoblotting) was “marked and dose-dependent inhibition”, the “CD31-positive endothelial cells (microvessel density)” value ([5]; IHC, 2 h after final administration) was “significant reduction” and the “tolerance (body weight)” value ([5]; all tested dosages, data not shown) was “lack of significant weight loss”. For the same compound, the “sub-G1 cell population (apoptosis)” value (MKN-45 cells [6]) was “no obvious sub-G1 cell population”, the “effect on cell cycle distribution” value (MKN-45 cells [6]; dose-dependent, P<0.001) was “G1/S phase arrest” and the “sub-G1 cell population (apoptosis)” value (EBC-1 cells [7]) was “no obvious sub-G1 cell population”. The “effect on cell cycle distribution” value (EBC-1 cells [7]; dose-dependent, P<0.001) was “G1/S phase arrest”, the “dose sufficient to block the movement of most cells (invasion)” value (NCI-H441 cells [8]) was 4 nM and the tumor response ([9]; 12.5 mg/kg and 25 mg/kg oral twice daily) was “tumor stasis and regression”. For the same compound, the “intratumoral phosphorylation of c-Met” value ([9]; 2 hours after the final dosage, immunoblotting and IHC) was “marked and dose-dependent inhibition”, the IL-8 plasma level ([9]; human IL-8 ELISA, day 21, P<0.001) was “significant reduction” and the “dose sufficient to block the movement of most cells (motility)” value (NCI-H441 cells [10]) was 4 nM. For the same compound, the “effect on HGF-induced MMP expression” value [11] was “significantly inhibited”, the IC50 at 72 h [12] was > 50 µM and the “effect on c-Met phosphorylation and its downstream signaling” value [13] was “potently inhibited”. For the same compound, the “effect on HGF-induced cell scattering” value (MDCK cells [14]) was “strongly inhibited”.
